Experimental data reported in DBAASP.
Values after ≈ are worked out from the molar mass of the structure shown.

Legend:
Assay in all cases: ≥ marks a high value that may be exact or a test limit, other limits are often not marked, values filed in µg/mL are converted to µM
[1] = tested on: Escherichia coli ATCC 25922
[2] = tested on: Bacillus subtilis ATCC 6633
[3] = tested on: Saccharomyces cerevisiae CGMCC 2.3973
[4] = tested on: Pseudomonas aeruginosa ATCC 27853
[5] = tested on: Staphylococcus aureus ATCC 25923
[6] = tested on: Candida albicans ATCC 10231
[7] = tested on: Enterococcus faecalis ATCC 29212
[8] = tested on: Staphylococcus aureus ATCC 29213
[9] = tested on: Aspergillus brasiliensis ATCC 16404
Staphylococcus aureus = tested on: Staphylococcus aureus
Streptococcus sanguinis = tested on: Streptococcus sanguinis
Escherichia coli C600 = tested on: Escherichia coli C600
[10] = tested on: Bacillus subtilis VKM B-501
[11] = tested on: Staphylococcus aureus 209P
[12] = tested on: Streptococcus iniae KCTC 3657
[13] = tested on: Bacillus cereus ATCC 10876
[14] = tested on: Salmonella enterica subsp. enterica serovar Typhimurium ATCC 14028
[15] = tested on: Klebsiella pneumoniae ATCC 700603
[16] = tested on: Pseudomonas aeruginosa ATCC 10145
Escherichia coli D31 = tested on: Escherichia coli D31
[17] = tested on: Staphylococcus aureus ATCC 27660
Escherichia coli BW25113 = tested on: Escherichia coli BW25113
[18] = tested on: Acinetobacter baumannii ATCC 19606
[19] = tested on: Escherichia coli BW25113 ΔsbmA
[20] = tested on: Erwinia amylovora PMV 6076
[21] = tested on: Xanthomonas fragariae Xf349-9A
[22] = tested on: Xanthomonas campestris pv. Vesicatoria 2133-2
[23] = tested on: Xanthomonas arboricola pv. pruni CFBP 5563
[24] = tested on: Pseudomonas syringae pv. actinidiae Psa3700.1.1
[25] = tested on: Pseudomonas syringae pv. syringae EPS 94

## CC[C@H](C)[C@H](NC(=O)CNC(=O)[C@@H](NC(=O)[C@H](CCCCN)NC(=O)[C@@H](NC(=O)[C@H](CCCCN)NC(=O)[C@H](CCCCN)NC(=O)[C@H](CC(=O)O)NC(=O)CNC(=O)[C@H](C)N)[C@@H](C)CC)[C@@H](C)CC)C(=O)N[C@@H](CC(N)=O)C(=O)NCC(=O)N[C@@H](Cc1ccccc1)C(=O)NCC(=O)N[C@@H](CCCN=C(N)N)C(=O)N[C@H](C(=O)NCC(=O)N[C@@H](CCCN=C(N)N)C(=O)N[C@@H](CC(C)C)C(=O)O)[C@@H](C)CC [AGDKKIKIGINGFGRIGRL]
[1]
  MIC: 31.8 µM (≈ 64 µg/mL)
[2]
  MIC: ≥ 254 µM
[3]
  MIC: ≥ 254 µM
[4]
  MIC: > 254 µM
[5]
  MIC: 254 µM (≈ 512 µg/mL)

## CC[C@H](C)[C@H](NC(=O)[C@H](CCCCN)NC(=O)CNC(=O)[C@@H]1CCCN1C(=O)[C@H](Cc1cnc[nH]1)NC(=O)[C@H](CC(C)C)NC(=O)[C@H](CC(C)C)NC(=O)[C@H](Cc1ccc(O)cc1)NC(=O)[C@H](CO)NC(=O)CNC(=O)[C@H](Cc1ccc(O)cc1)NC(=O)[C@H](CC(C)C)NC(=O)[C@H](CO)NC(=O)[C@@H](N)CS)C(=O)N[C@@H](CO)C(=O)N[C@@H](Cc1ccc(O)cc1)C(=O)N[C@@H](CO)C(=O)N[C@@H](CC(C)C)C(=O)N[C@@H](Cc1cnc[nH]1)C(=O)N[C@@H](CS)C(=O)N[C@@H](CO)C(=O)N[C@@H](CCCN=C(N)N)C(=O)O [CSLYGSYLLHPGKISYSLHCSR]
[6]
  MIC: 32 µM (≈ 79.5 µg/mL)
[7]
  MIC: 16 µM (≈ 39.8 µg/mL)
[1]
  MIC: 16 µM (≈ 39.8 µg/mL)
[8]
  MIC: 32 µM (≈ 79.5 µg/mL)
[4]
  MIC: 64 µM (≈ 159 µg/mL)
[9]
  MIC: ≥ 64 µM

## CC[C@H](C)[C@H](NC(=O)[C@H](Cc1ccccc1)NC(=O)[C@@H](N)Cc1ccccc1)C(=O)N[C@@H](Cc1ccccc1)C(=O)N[C@@H](Cc1ccccc1)C(=O)N[C@@H](Cc1ccccc1)C(N)=O [FFIFFF]
Staphylococcus aureus
  MIC: 14.8 µM (≈ 12.8 µg/mL)
Streptococcus sanguinis
  MIC: ≥ 32.6 µM

## CC[C@H](C)[C@H](NC(=O)[C@H](C)NC(=O)[C@H](CCCCN)NC(=O)[C@H](CCCN=C(N)N)NC(=O)CNC(=O)[C@H](Cc1ccccc1)NC(=O)[C@H](CCCCN)NC(=O)[C@H](CCCCN)NC(=O)[C@@H](NC(=O)[C@H](CC(C)C)NC(=O)[C@H](CCCCN)NC(=O)CN)[C@@H](C)CC)C(=O)N[C@@H](CO)C(=O)N[C@@H](Cc1ccc(O)cc1)C(=O)N[C@@H](C)C(=O)N[C@H](C(=O)N[C@@H](CCCCN)C(=O)N[C@@H](CCCCN)C(=O)N[C@@H](C)C(=O)N[C@@H](CCCN=C(N)N)C(=O)NCC(=O)N[C@@H](CCCCN)C(=O)N[C@@H](Cc1cnc[nH]1)C(=O)O)C(C)C [GKLIKKFGRKAISYAVKKARGKH]
Escherichia coli C600
  MIC: 6 µM (≈ 15.5 µg/mL)
[10]
  MIC: 0.7 µM (≈ 1.81 µg/mL)
[11]
  MIC: ≥ 36 µM

## CSCC[C@H](NC(=O)[C@H](Cc1ccccc1)NC(=O)[C@H](CCCCN)NC(=O)[C@H](CCCN=C(N)N)NC(=O)[C@H](Cc1ccccc1)NC(=O)CNC(=O)[C@H](CC(N)=O)NC(=O)[C@H](CCCN=C(N)N)NC(=O)[C@H](CCCCN)NC(=O)[C@@H](NC(=O)[C@H](CCCN=C(N)N)NC(=O)[C@@H](N)Cc1cnc[nH]1)C(C)C)C(=O)N[C@@H](CCCN=C(N)N)C(=O)N[C@@H](CCCN=C(N)N)C(=O)N[C@@H](CC(C)C)C(=O)N[C@@H](CCCCN)C(=O)N[C@@H](CCCCN)C(=O)N[C@@H](Cc1ccccc1)C(=O)N[C@@H](Cc1ccccc1)C(=O)N[C@@H](C)C(=O)NCC(=O)NCC(=O)O [HRVKRNGFRKFMRRLKKFFAGG]
[1]
  MIC: 1.1 µM (≈ 3 µg/mL)
[12]
  MIC: 11.7 µM (≈ 32 µg/mL)
[8]
  MIC: > 46.8 µM
[13]
  MIC: 11.7 µM (≈ 32 µg/mL)
[14]
  MIC: 0.731 µM (≈ 2 µg/mL)
[4]
  MIC: 2.92 µM (≈ 8 µg/mL)

## CC[C@H](C)[C@H](NC(=O)CNC(=O)[C@H](CCCCN)NC(=O)[C@H](Cc1ccccc1)NC(=O)[C@H](CC(C)C)NC(=O)[C@H](CCCCN)NC(=O)[C@H](CCCCN)NC(=O)[C@H](C)NC(=O)[C@H](CCCCN)NC(=O)[C@H](CCCCN)NC(=O)[C@H](Cc1c[nH]c2ccccc12)NC(=O)CNC(=O)[C@H](CCCCN)NC(=O)[C@H](C)NC(=O)[C@H](Cc1ccccc1)NC(=O)[C@@H](NC(=O)[C@H](CCCCN)NC(=O)[C@@H](NC(=O)[C@H](CC(C)C)NC(=O)[C@H](CCCCN)NC(=O)[C@@H](N)CCCCN)[C@@H](C)CC)C(C)C)C(=O)NCC(=O)O [KKLIKVFAKGWKKAKKLFKGIG]
[15]
  MIC: 1.88 µM (≈ 4.73 µg/mL)
[16]
  MIC: 1.88 µM (≈ 4.73 µg/mL)
Escherichia coli D31
  MIC: 0.94 µM (≈ 2.37 µg/mL)
[17]
  MIC: 0.47 µM (≈ 1.18 µg/mL)

## CC[C@H](C)[C@H](NC(=O)[C@@H]1CCCN1C(=O)[C@@H]1CCCN1C(=O)[C@H](CCCN=C(N)N)NC(=O)[C@H](Cc1ccccc1)NC(=O)[C@@H]1CCCN1C(=O)[C@@H]1CCCN1C(=O)[C@H](Cc1ccc(O)cc1)NC(=O)[C@H](Cc1ccccc1)NC(=O)[C@@H]1CCCN1C(=O)[C@@H]1CCCN1C(=O)[C@H](CCCN=C(N)N)NC(=O)[C@@H](NC(=O)[C@@H]1CCCN1C(=O)[C@@H]1CCCN1C(=O)[C@H](CCCN=C(N)N)NC(=O)[C@H](CCCN=C(N)N)NC(=O)[C@@H](NC(=O)[C@@H]1CCCN1C(=O)[C@@H]1CCCN1C(=O)[C@H](CCCN=C(N)N)NC(=O)[C@H](Cc1ccccc1)NC(=O)[C@@H](N)CCCN=C(N)N)[C@@H](C)CC)[C@@H](C)CC)C(=O)O [RFRPPIRRPPIRPPFYPPFRPPI]
[15]
  MIC: 32 µM (≈ 91.9 µg/mL)
Escherichia coli BW25113
  MIC: 2 µM (≈ 5.74 µg/mL)
[18]
  MIC: 1 µM (≈ 2.87 µg/mL)
[1]
  MIC: 2 µM (≈ 5.74 µg/mL)
[19]
  MIC: ≥ 32 µM
[14]
  MIC: 4 µM (≈ 11.5 µg/mL)
[4]
  MIC: 32 µM (≈ 91.9 µg/mL)
[5]
  MIC: > 64 µM

## CC(C)[C@H](N)C(=O)N[C@@H](Cc1c[nH]c2ccccc12)C(=O)N[C@@H](CC(N)=O)C(=O)N[C@@H](CCC(N)=O)C(=O)N1CCC[C@H]1C(=O)N[C@H](C(=O)N[C@@H](CCCN=C(N)N)C(=O)NCC(=O)N[C@@H](Cc1ccccc1)C(=O)N[C@@H](CCCCN)C(=O)N[C@H](C(=O)N[C@@H](Cc1ccc(O)cc1)C(=O)N[C@@H](CCC(=O)O)C(=O)O)C(C)C)C(C)C [VWNQPVRGFKVYE]
[20]
  MIC: ≥ 50 µM
[21]
  MIC: ≥ 50 µM
[22]
  MIC: ≥ 50 µM
[23]
  MIC: ≥ 50 µM
[24]
  MIC: ≥ 50 µM
[25]
  MIC: ≥ 50 µM
